According to article PMC4111740, “Ligand-Based Pharmacophore Modeling and Virtual Screening for the Discovery of Novel 17β-Hydroxysteroid Dehydrogenase 2 Inhibitors” (Journal of Medicinal Chemistry, 2014):
Entries after “also recorded” stand apart in the source; their conditions may differ. Blank lines part the entries; values can stand above or below the compound they belong to.

Key:
[1] = target: T1, 17β-HSD3 (Homo sapiens, UniProt P37058); assay: 17β-HSD3 activity in intact transfected HEK-293 cells; type: cell-based
T1 construct: expressed in transfected cells; host or cells: HEK-293 (transient, calcium phosphate), intact cells
T1 sequence (P37058 1-310): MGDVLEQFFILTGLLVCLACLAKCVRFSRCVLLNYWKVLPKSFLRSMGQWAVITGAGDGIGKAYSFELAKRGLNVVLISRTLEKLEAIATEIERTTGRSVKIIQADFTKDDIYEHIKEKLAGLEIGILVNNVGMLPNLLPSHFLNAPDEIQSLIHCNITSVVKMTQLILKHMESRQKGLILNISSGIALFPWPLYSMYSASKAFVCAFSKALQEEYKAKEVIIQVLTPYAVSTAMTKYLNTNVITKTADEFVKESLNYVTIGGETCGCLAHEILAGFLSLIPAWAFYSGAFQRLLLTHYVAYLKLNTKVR
Description: (§1) Human embryonic kidney cells (HEK-293) were cultivated in DMEM containing 4.5 g/L glucose, 10% fetal bovine serum, 100 U/mL penicillin, 0.1 mg/mL streptomycin, 1× MEM nonessential amino acids, and 10 mM HEPES buffer, pH 7.4. The cells were incubated at 37 °C until 80% confluency. The cells were transfected using the calcium phosphate method with expression plasmids for 17β-HSD2 and 17β-HSD3. After 24 h, the cells were trypsinized and seeded on poly-L-lysine-coated 96-well plates (15 000 cells/well).
(§2) The inhibitory activities were measured 24 h after seeding as follows: old medium was aspirated and replaced by 30 μL of charcoal-treated DMEM (cDMEM). Ten microliters of inhibitor dissolved in cDMEM into the respective concentration was added, and mixtures were preincubated at 37 °C for 20 min. 17β-HSD2 inhibitory activities were measured in the presence of 190 nM unlabeled estradiol and 10 nM radiolabeled estradiol. N-(3-Methoxyphenyl)-N-methyl-5-m-tolylthiophene-2-carboxamide (compound 19 in ref ([26])) was used as positive control. The reaction mixtures were incubated for 20 min, and the reactions were stopped by adding an excess of estradiol and estrone (1:1, 2 mM in methanol) to the mixture.
17β-HSD3 inhibitory activities were measured in the presence of 190 nM unlabeled androstenedione and 10 nM radiolabeled androstenedione. Benzophenone-1 was used as positive control. The reaction mixtures were incubated for 30 min, and the reactions were stopped by adding an excess of androstenedione and testosterone (1:1, 2 mM in methanol). The steroids were separated by TLC, followed by scintillation counting and calculation of substrate concentration. Data was obtained from three independent measurements.

[2] = target: T2, 11β-HSD1 (Homo sapiens, UniProt P28845); assay: 11β-HSD1 activity in lysates of stably transfected cells; type: biochemical
T2 construct: expressed in transfected cells
T2 sequence (P28845 whole entry): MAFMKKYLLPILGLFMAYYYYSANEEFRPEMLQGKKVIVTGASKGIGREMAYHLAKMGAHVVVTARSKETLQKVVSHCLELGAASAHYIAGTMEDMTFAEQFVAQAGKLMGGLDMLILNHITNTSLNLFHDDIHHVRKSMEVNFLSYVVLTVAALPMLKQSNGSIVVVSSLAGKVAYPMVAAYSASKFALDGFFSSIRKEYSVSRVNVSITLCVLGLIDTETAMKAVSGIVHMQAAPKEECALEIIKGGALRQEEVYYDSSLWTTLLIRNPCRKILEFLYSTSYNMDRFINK
Description: The methods to determine 11β-HSD1 and -2 activity were performed as described previously.[64] Briefly, lysates of stably transfected cells, expressing either 11β-HSD1 or 11β-HSD2, were incubated for 10 min at 37 °C in TS2 buffer in a final volume of 22 μL containing either solvent (0.2% DMSO) or the inhibitor at the respective concentration. The nonselective 11β-HSD inhibitor glycyrrhetinic acid was used as positive control. Activity measurements of 11β-HSD1 were performed with 190 nM unlabeled cortisone, 10 nM radiolabeled cortisone, and 500 μM NADPH. To measure 11β-HSD2 activity, lysates were incubated with 40 nM unlabeled cortisol, 10 nM radiolabeled cortisol, and 500 μM NAD^+. Reactions were stopped after 10 min by adding an excess of unlabeled cortisone and cortisol (1:1, 2 mM in methanol). The steroids were separated by TLC, followed by scintillation counting and calculation of substrate concentration. Data were collected from at least three independent measurements.

[3] = target: T3, 17β-HSD2 (Homo sapiens, UniProt P37059); assay: 17β-HSD2 activity in intact transfected HEK-293 cells; type: cell-based; settings: intact HEK-293 cells
T3 construct: expressed in transfected cells; host or cells: HEK-293 (transient, calcium phosphate), lysate
T3 sequence (P37059 1-387): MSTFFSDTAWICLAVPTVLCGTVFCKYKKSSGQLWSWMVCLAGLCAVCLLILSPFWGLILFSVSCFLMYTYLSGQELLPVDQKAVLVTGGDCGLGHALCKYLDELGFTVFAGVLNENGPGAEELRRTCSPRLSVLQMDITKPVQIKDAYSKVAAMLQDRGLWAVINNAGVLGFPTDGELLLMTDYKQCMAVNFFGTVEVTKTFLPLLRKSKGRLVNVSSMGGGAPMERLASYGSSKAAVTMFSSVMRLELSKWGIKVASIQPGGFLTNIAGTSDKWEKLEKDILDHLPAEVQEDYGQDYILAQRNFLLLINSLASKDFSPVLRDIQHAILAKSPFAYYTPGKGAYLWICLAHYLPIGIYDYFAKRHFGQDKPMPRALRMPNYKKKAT
Description: as §1, §2

[4] = target: T4, 17β-HSD1 (Homo sapiens, UniProt P14061); assay: 17β-HSD1 activity in HEK-293 cell lysates; type: biochemical; settings: ratio of IC50 values
T4 construct: expressed in transfected cells; host or cells: HEK-293 (transient, calcium phosphate), lysate
T4 sequence (P14061 1-328): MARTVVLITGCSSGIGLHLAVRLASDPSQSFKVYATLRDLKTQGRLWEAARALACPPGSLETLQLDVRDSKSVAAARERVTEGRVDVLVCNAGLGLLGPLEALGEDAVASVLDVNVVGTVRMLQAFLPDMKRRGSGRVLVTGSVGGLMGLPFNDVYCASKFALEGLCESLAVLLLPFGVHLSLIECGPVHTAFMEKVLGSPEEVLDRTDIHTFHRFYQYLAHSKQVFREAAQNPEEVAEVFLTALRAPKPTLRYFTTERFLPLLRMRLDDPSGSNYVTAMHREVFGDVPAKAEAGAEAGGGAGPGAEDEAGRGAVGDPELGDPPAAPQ
Description: HEK-293 cells were transfected by the calcium phosphate precipitation method with plasmids for human 17β-HSD1, 17β-HSD2, or 11β-HSD2. Cells were cultivated for 48 h, washed with phosphate-buffered saline, and centrifuged for 4 min at 150g. After removal of the supernatants, cell pellets were snap frozen in dry ice and stored at −80 °C until further use.
Lysates of human embryonic kidney cells (HEK-293) expressing either 17β-HSD1 or 17β-HSD2 were incubated for 10 min at 37 °C in TS2 buffer in a final volume of 22 μL containing either solvent (0.2% DMSO/chloroform) or the inhibitor at the respective concentration. N-(3-Methoxyphenyl)-N-methyl-5-m-tolylthiophene-2-carboxamide (compound 19 in ref ([26])) and apigenin[50] were used as positive controls for 17β-HSD1 and 17β-HSD2, respectively, in all experiments. 17β-HSD1 activity was measured in the presence of 190 nM unlabeled estrone, 10 nM radiolabeled estrone, and 500 μM NADPH. In contrast, 17β-HSD2 activity was determined in the presence of 190 nM unlabeled estradiol, 10 nM radiolabeled estradiol, and 500 μM NAD^+. Reactions were stopped after 10 min by adding an excess of unlabeled estradiol and estrone (1:1, 2 mM in methanol). Possible promiscuous enzyme inhibition by aggregate formation of the chemicals was excluded by measuring the inhibition of the enzyme activity by the compounds in the presence of 0.1% Triton X-100.[36] […]

selectivity 17β-HSD3 against 17β-HSD2 ([1]; ratio of IC50 values): 35 fold
selectivity 11β-HSD1 against 17β-HSD2 ([2]; ratio of IC50 values): 9 fold
Structure (SMILES): CC(C)(C)c1ccc(S(=O)(=O)Oc2ccccc2O)cc1 [Compound 12]
17β-HSD2 inhibition in intact cells (in words) [3]: concentration-dependently inhibited 17β-HSD2

selectivity: more active toward 17β-HSD2 than 17β-HSD1 [4]: 18 fold
17β-HSD3 inhibition (in words) ([1]; intact cells): weak 17β-HSD3 inhibitors
Structure (SMILES): Cc1cc(S(=O)(=O)Nc2cccc(O)c2)c(C)cc1Cl [Compound 22]

17β-HSD3 intact inhibition class (n.i.) ([1]; rest activity at 20 μM, Table 3): n.i
Structure (SMILES): COc1ccc(S(=O)(=O)Nc2cccc(O)c2)c2c1CCCC2 [Compound 23]
11β-HSD1 versus 17β-HSD2 potency (in words) ([2]; lysates): almost equipotent toward 17β-HSD2 and 11β-HSD1; also recorded: equipotent 17β-HSD2 and 11β-HSD1 inhibitors
